Results published in article PMC10294832, “Investigation of Naphthyl–Polyamine Conjugates as Antimicrobials and Antibiotic Enhancers” (Antibiotics, 2023).
Values joined by “and” are separate entries in the source; they are usually repeats but may differ in a detail not shown here. Equal values may be shown once.

Experiments:
[1] = test system: C. neoformans (ATCC 208821); test: Antifungal MIC, C. neoformans; format: cell-based, Cryptococcus neoformans; settings: Cryptococcus neoformans, ATCC208821, C. neoformans (ATCC 208821); mean (n = 2)
Procedure: (§1) The susceptibility of bacterial strains S. aureus (ATCC 25,923 or 29213), E. coli (ATCC 25922), and P. aeruginosa (ATCC 27853) to antibiotics and compounds was determined according to previously reported protocols. Additional antimicrobial evaluation against MRSA (ATCC 43300), Klebsiella pneumoniae (ATCC 700603), Acinetobacter baumannii (ATCC 19606), Candida albicans (ATCC 90028), and Cryptococcus neoformans (ATCC 208821) was undertaken at the Community for Open Antimicrobial Drug Discovery at The University of Queensland (Australia) according to their standard protocols as reported previously.

[2] = test system: C. albicans (ATCC 90028); test: Antifungal MIC, C. albicans; format: cell-based; settings: Candida albicans, ATCC90028, mean (n = 2)
Procedure: as §1

[3] = test system: P. aeruginosa (PAO1 or ATCC 27853); test: Antimicrobial MIC, P. aeruginosa; format: cell-based; settings: Pseudomonas aeruginosa; P. aeruginosa (PAO1 or ATCC 27853); mean (n = 3); read-out: MIC P. a
Procedure: as §1

[4] = test system: A. baumannii (ATCC 19606); test: Antimicrobial MIC, A. baumannii; format: cell-based, Acinetobacter baumannii; settings: Acinetobacter baumannii, ATCC19606, A. baumannii (ATCC 19606); mean (n = 2)
Procedure: as §1

[5] = test system: E. coli (ATCC 25922); test: Antimicrobial MIC, E. coli; format: cell-based, Escherichia coli; settings: mean (n = 2)
Procedure: as §1

[6] = test system: K. pneumoniae (ATCC 700603); test: Antimicrobial MIC, K. pneumoniae; format: cell-based; settings: Klebsiella pneumoniae, ATCC700603, mean (n = 2)
Procedure: as §1

[7] = test system: E. coli (ATCC 25922); test: Enhancement of erythromycin activity; format: cell-based, Escherichia coli; settings: for Eryth/E.c: concentration required to restore erythromycin activity (combination MIC): erythromycin fixed at 10.9 µM (8 µg/mL), E. coli (ATCC 25922); for Eryth/E.c fold change: ratio between intrinsic MIC of test compound and combination MIC, erythromycin 10.9 µM, E. coli
Procedure: Restoring enhancer concentrations were determined using previously reported protocols.

[8] = test system: P. aeruginosa (ATCC 27853); test: Enhancement of doxycycline activity; format: cell-based, Pseudomonas aeruginosa; settings: for Dox/P.a: concentration required to restore doxycycline activity (combination MIC): doxycycline fixed at 4.5 µM (2 µg/mL), P. aeruginosa (ATCC 27853); for Dox/P.a fold change: ratio between intrinsic MIC of test compound and combination MIC, doxycycline 4.5 µM, P. aeruginosa
[9] = test system: human red blood cells; test: Hemolytic assay; format: cell-based; settings: concentration at 10% hemolytic activity on human red blood cells; mean (n = 2)
Procedure: Hemolysis assays were conducted using the protocols previously reported.

[10] = Cytotoxicity assay; format: cell-based, human; settings: human, HEK293 human embryonic kidney cells, concentration at 50% cytotoxicity on HEK293 cells; mean (n = 2)
Procedure: Cytotoxicity assays were conducted using the protocols previously reported.

[11] = test system: S. aureus (ATCC 25,923 or ATCC 29213); test: Antimicrobial MIC, S. aureus; format: cell-based, Staphylococcus aureus; settings: mean (n = 3)
Procedure: as §1

[12] = test system: MRSA (ATCC 43300); test: Antimicrobial MIC, MRSA; format: cell-based, methicillin-resistant Staphylococcus aureus; settings: Staphylococcus aureus, MRSA (ATCC 43300); mean (n = 2); read-out: MIC MRSA
Procedure: as §1

[13] = Escherichia coli, ATCC25922, E. coli (ATCC 25922)

O=C(NCCCNCCCCCCCCCCCCNCCCNC(=O)c1cccc2ccccc12)c1cccc2ccccc12.O=C(O)C(F)(F)F.O=C(O)C(F)(F)F [Compound 17f, N^1,N^12-Bis(3-(1-naphthamido)propyl)dodecane-1,12-diaminium 2,2,2-trifluoroacetate]
MIC [1]: 0.29 µM | MIC [2]: > 37.6 µM | MIC [3]: 300 µM | MIC [4]: 0.29 µM | MIC [5, 13]: 100 µM | MIC [6]: > 37.6 µM | Eryth/E.c: concentration required to restore erythromycin activity (combination MIC) [7]: 50 µM | Eryth/E.c fold change [7]: 2 fold | Dox/P.a: concentration required to restore doxycycline activity (combination MIC) [8]: 300 µM | Dox/P.a fold change [8]: 1 fold | Hemolysis HC10 [9]: >37.6 µM | IC50 [10]: > 37.6 µM | MIC ([11]; Staphylococcus aureus): 25 µM | MIC [12]: 0.29 µM

O=C(CCC(=O)Nc1ccc2ccccc2c1)NCCCNCCCCCCCCCCNCCCNC(=O)CCC(=O)Nc1ccc2ccccc2c1.O=C(O)C(F)(F)F.O=C(O)C(F)(F)F [Compound 20e, N^1,N^10-Bis(3-(4-(naphthalen-2-ylamino)-4-oxobutanamido)propyl)decane-1,10-diaminium 2,2,2-trifluoroacetate]
MIC [1]: 16.6 µM | MIC [2]: > 33.2 µM | MIC [3]: 518 µM | MIC [4]: > 33.2 µM | MIC [5, 13]: 104 µM | MIC [6]: > 33.2 µM | Eryth/E.c: concentration required to restore erythromycin activity (combination MIC) [7]: 13 µM and 13.0 µM | Eryth/E.c fold change [7]: 8 fold | Dox/P.a: concentration required to restore doxycycline activity (combination MIC) [8]: 104 µM | Dox/P.a fold change [8]: 5 fold | Hemolysis HC10 [9]: >33.2 µM | IC50 [10]: > 33.2 µM | MIC ([11]; Staphylococcus aureus): 12.9 µM | MIC [12]: 16.6 µM

O=C(CCC(=O)Nc1cccc2ccccc12)NCCCNCCCCCCNCCCNC(=O)CCC(=O)Nc1cccc2ccccc12.O=C(O)C(F)(F)F.O=C(O)C(F)(F)F [Compound 18b, N^1,N^6-Bis(3-(4-(naphthalen-1-ylamino)-4-oxobutanamido)propyl)hexane-1,6-diaminium 2,2,2-trifluoroacetate]
MIC [1]: > 35.2 µM | MIC [2]: > 35.2 µM | MIC [3]: > 200 µM | MIC [4]: > 35.2 µM | MIC [5, 13]: > 200 µM | MIC [6]: > 35.2 µM | Eryth/E.c: concentration required to restore erythromycin activity (combination MIC) [7]: 200 µM | Eryth/E.c fold change [7]: 1 fold | Dox/P.a: concentration required to restore doxycycline activity (combination MIC) [8]: 100 µM | Dox/P.a fold change [8]: > 2 fold | Hemolysis HC10 [9]: >35.2 µM | IC50 [10]: > 35.2 µM | MIC ([11]; Staphylococcus aureus): > 200 µM | MIC [12]: > 35.2 µM

O=C(CCC(=O)Nc1cccc2ccccc12)NCCCNCCCCCCCCCCCCNCCCNC(=O)CCC(=O)Nc1cccc2ccccc12.O=C(O)C(F)(F)F.O=C(O)C(F)(F)F [Compound 18f, N^1,N^12-Bis(3-(4-(Naphthalen-1-ylamino)-4-oxobutanamido)propyl)dodecane-1,12-diaminium 2,2,2-trifluoroacetate]
MIC [1]: ≤ 0.25 µM | MIC [2]: > 32 µM | MIC [3]: > 100 µM | MIC [4]: > 32 µM | MIC ([5]; E. coli (ATCC 25922)): 12.5 µM | MIC [5, 13]: 6.3 to 12.5 µM | MIC [6]: > 32 µM | Eryth/E.c: concentration required to restore erythromycin activity (combination MIC) [7]: 6.29 µM | Eryth/E.c fold change [7]: 2 fold | Dox/P.a: concentration required to restore doxycycline activity (combination MIC) [8]: 50.3 µM | Dox/P.a fold change [8]: > 2 fold | Hemolysis HC10 [9]: >32.2 µM | IC50 [10]: > 32.2 µM | MIC ([11]; Staphylococcus aureus): 3.12 µM | MIC [11]: 3.15 µM | MIC [12]: ≤ 0.25 µM

O=C(CCC(=O)Nc1ccc2ccccc2c1)NCCCNCCCCCCNCCCNC(=O)CCC(=O)Nc1ccc2ccccc2c1.O=C(O)C(F)(F)F.O=C(O)C(F)(F)F [Compound 20b, N^1,N^6-Bis(3-(4-(naphthalen-2-ylamino)-4-oxobutanamido)propyl)hexane-1,6-diaminium 2,2,2-trifluoroacetate]
MIC [1]: 35.2 µM | MIC [2]: > 35.2 µM | MIC [3]: > 200 µM | MIC [4]: > 35.2 µM | MIC [5, 13]: 50 µM | MIC [6]: > 35.2 µM | Eryth/E.c: concentration required to restore erythromycin activity (combination MIC) [7]: 50 µM | Eryth/E.c fold change [7]: 1 fold | Dox/P.a: concentration required to restore doxycycline activity (combination MIC) [8]: 25 µM | Dox/P.a fold change [8]: > 8 fold | Hemolysis HC10 [9]: >35.2 µM | IC50 [10]: > 35.2 µM | MIC ([11]; Staphylococcus aureus): > 200 µM | MIC [12]: > 35.2 µM
